Laboratory results reported in patent US9956181B2, “Composition of nanoformulated lycopene and method of using the composition” (priority 2015, dated 2018).

System: genes involved in osteoblast activity, osteoclastogenesis, apoptosis and oxidative stress enzymes
Assay: OVX rat study: qRT-PCR of bone marrow and flushed femur
Format: in vivo, Wistar rats
Settings: for decrease in concentration ratio of RANKL/OPG: P<0.05
Method: FIG. 10 depicts […] analysis of genes involved in osteoblast activity, osteoclastogenesis, apoptosis and oxidative stress enzymes, in accordance with embodiments of the present invention. Bone marrow (A) was analyzed for relative mRNA abundance of the osteoclastogenesis gene factor of activated T-cells (Nfatc1), while the flushed femur (B-D) was used to examine genes involved in osteoblast activity and function: type 1 collagen (Colla1), osteocalcin (Ocn), alkaline phosphatase (Alp), osteoprotegerin (Opg), and receptor activator for NF-kappa B ligand (Rankl) in sham-operated (SHAM) and ovariectomized (Ovx) rats treated with placebo or lycopene (15, 30 and 45 mg/kg body weight per day) or alendronate (ALN) (2.0 ug/kg body weight per day) for 12 weeks. Bone marrow (F-H) was analyzed for relative mRNA abundance of oxidative enzyme: glutathione peroxidase (GPx), superoxide dismutase (SOD) and catalase (CAT) in sham-operated (SHAM) and ovariectomized (Ovx) rats treated with placebo or lycopene (15, 30 and 45 mg/kg body weight per day) or alendronate (ALN) (2.0 ug/kg body weight per day) for 12 weeks. Bone marrow (I) and the flushed femur (J-L) were analyzed for relative mRNA abundance of apoptotic genes. Genes of interest including, B-cell lymphoma homologous antagonist/killer (Bak1), caspase-3 (Casp3) and -9 (Casp 9) in sham-operated (SHAM) and ovariectomized (Ovx) rats treated with placebo or lycopene (15, 30 and 45 mg/kg body weight per day) or alendronate (ALN) (2.0 ug/kg body weight per day) for 12 weeks. Bars represent the mean±SD for 10 rats in each group.
A total of 264 Wistar female rats, ˜6 months old, were supplied by the Animal House at King Fahd Medical Research Center (KFMRC), KAU. Rats were housed in individual cages and maintained at 22° C. with a 12-h light/dark cycle. During the study period, rats were given standard rodent chow diet ad libitum (commercial rat cubes containing approximately 18% protein, 3% fat, 77% carbohydrate, and 2% of an inorganic-salt mixture with a vitamin supplement by weight, supplied by Grain Silos and Flour Mills Organization, Jeddah, Saudi Arabia) and water until the onset of intervention. Prior to surgery, rats were anesthetized with ketamine [(10% ketamine hydrochloride (80 mg/kg body weight), Cayman Chemical, Michigan, USA] and xylazine [(2% xylazine hydrochloride, 10 mg/kg body weight), Sigma-Aldrich Co., St. Louis, USA]. A single longitudinal skin incision was made on the dorsal midline at the level of the kidneys and both ovaries were ligated and removed to produce an ovariectomy in all OVX group animals. A SHAM-operated group, acting as a negative control for the effect of ovariectomy on bone parameters, underwent bilateral laparotomy, during which the ovaries were exposed but remained intact. […] The lycopene-supplemented groups were given lycopene (15, 30 and 45 mg/kg body weight per day) dissolved in corn oil by daily intra-gastric administration for the experimental period of 12 weeks. The SHAM, OVX and ALN control groups were given the same volume of corn oil without lycopene treatment. […] A 12-week randomized placebo-controlled study in order to examine the protective effects of lycopene supplementation on bone mass and fragility in OVX rats was concluded. Prior to surgery, body weight and bone mineral density (BMD) were obtained for all animals. Rats were randomized using a computer-generated randomization code into one of six groups: (1) sham-operated (SHAM; n=44); (2) ovariectomized control (OVX; n=44); (3) OVX lycopene-supplemented (15 mg/kg body weight per day) (n=44); (4) OVX lycopene-supplemented (30 mg/kg body weight per day) (n=44); (5) OVX lycopene-supplemented (45 mg/kg body weight per day) (n=44) and (6) OVX alendronate-treated (ALN) [2.0 μg/kg body weight per day subcutaneously (sc)] (n=44). Alendronate is an anti-resorptive agent for the treatment of osteoporosis and was used as a positive therapy control. […]

[1] = flushed femurs, lycopene treatment

## CC(C)=CCC/C(C)=C/C=C/C(C)=C/C=C/C(C)=C/C=C/C=C(C)/C=C/C=C(C)/C=C/C=C(\C)CCC=C(C)C [lycopene]
OVX rats, lycopene treatment
  Alp, Colla1 and Ocn mRNA: enhancing
All three doses of lycopene
  RANKL expression: down-regulated
Bone marrow, lycopene treatment
  Bak1 mRNA abundance compared to OVX control: up-regulated
Bone marrow, lycopene, 12 weeks, restored to SHAM level
  OVX-induced increase in Nfatc1 mRNA: suppressed
[1]
  Casp 9 and Casp 3 gene expression: did not change
  Colla1 gene expression: remained elevated
Higher doses of lycopene
  OPG expression: decreased
Lycopene 30 mg/kg body weight per day
  decrease in concentration ratio of RANKL/OPG: 18.9%
Lycopene 45 mg/kg body weight per day
  decrease in concentration ratio of RANKL/OPG: 38.3%
Lycopene treatment, to a level higher than SHAM
  GPX-1, CAT and SOD relative expression: increased
